In patent US20250188080A1, “IMIDAZOLONYLQUINOLINE COMPOUNDS AND THERAPEUTIC USES THEREOF” (Merck Patent GmbH, priority 2019, published 2025):

Columns and labels:
[1] = Non-sink dissolution in FaSSIF (pH 6.5); format: physicochemical; conditions: FaSSIF buffer solution (pH 6.5), FIG. 9
Description: Non-sink dissolution profiles for solid-state forms were acquired using shaked-flask method with excess solid material in FaSSIF medium (pH 6.5) with time-resolved sampling for determination of dissolved quantities of API.
Approx. 10-20 mg of solid sample were weighed into glass vials. 7 ml of respective medium (prewarmed to 37° C.) were added and the suspension was shaken at 450 rpm at 37° C. After 5 min, 10 min, 15 min, 30 min, 60 min, 120 min, 24 h and 48 h, […] was withdrawn and filtered through a 0.2 μm syringe filter. Clear filtrate was analysed by HPLC after suitable dilution to measure the amount of compound/form (may also be referred to as API) dissolved.
FaSSIF: 3 mM sodium taurocholate; 0.75 mM lecithin; 105.9 mM sodium chloride; 28.4 mM monobasic sodium phosphate and 8.7 mM sodium hydroxide, pH 6.5
Levels of dissolved compound/form were analysed by HPLC, with the following conditions: • Column: Chromolith RP-18e 100-3 mm • Solvent A: water/formic acid (999:1; v/v) • Solvent B: acetonitrile/formic acid (999:1; v/v) • Injection volume: 5 μL • Column temperature: 37° C. • HPLC-Gradient: […]

[2] = Dynamic vapor sorption (DVS) water uptake; format: physicochemical
Description: DCS water vapour sorption isotherms were acquired on DVS instrument with microbalance and incubator (DVS-Intrinsic, Surface Measurement Systems, SMS). Powder samples were accurately weighed into disposable Al pans and placed on the sample position of the DVS instrument. A nitrogen overall follow rate of 200 mL/min (combined dry and humid stream) was used for humidification. […] For all RH steps, an equilibrium condition of dm/dt≤0.0005 wt %/min was used, with a minimum RH step time of 10 minutes and a maximum RH step time (timeout) of 360 minutes.

Initial dissolution rate compared with parent Compound 1 [1] | other results | Structure (SMILES)
faster initial dissolution rate | Hygroscopic properties [2]: absence of hygroscopic properties | COc1cc2ncc3c(c2cc1-c1cn(C)nc1C)n(-c1c(F)cncc1OC)c(=O)n3C.O=C(O)/C=C/C(=O)O [Compound 1 fumarate]
 | Water adsorption (DVS), in words ([2]; up to a relative humidity of about 70%, 25° C.): very little water adsorption | COc1cc2ncc3c(c2cc1-c1cn(C)nc1C)n(-c1c(F)cncc1OC)c(=O)n3C [Form A3]
faster initial dissolution rate |  | COc1cc2ncc3c(c2cc1-c1cn(C)nc1C)n(-c1c(F)cncc1OC)c(=O)n3C.O=S(=O)(O)c1ccc2ccccc2c1 [Compound 1 napsylate]
faster initial dissolution rate |  | COc1cc2ncc3c(c2cc1-c1cn(C)nc1C)n(-c1c(F)cncc1OC)c(=O)n3C.O=S(=O)(O)CCS(=O)(=O)O [Compound 1 edisylate]
 | Water adsorbed (DVS) ([2]; up to a relative humidity of 100%, 25° C.): < 2% | COc1cc2ncc3c(c2cc1-c1cn(C)nc1C)n(-c1c(F)cncc1OC)c(=O)n3C [Form A2]
